Laboratory results: US20080254081A1, “Moist Wipe and Method of Making Same” (GEORGIA-PACIFIC CONSUMER PRODUCTS LP, priority 2002, published 2008)

Test system: test microbes
Experiment: Zone of Inhibition Test, antimicrobial efficacy overall
Format: cell-based
Settings: benzalkonium chloride in imbuement
Description: Each fabric was placed in a commercially prepared imbuement containing benzalkonium chloride as the functional cationic additive (an antimicrobial agent).
All test results are the average of testing three batches of sample moist wipes. […] Therefore, all of these examples killed the test microbes when benzalkonium chloride was at the measured concentration in solution in the lotion (Table V). The difference (Example 10 versus Example 11) is when comparing the area around the circular piece of test wet wipe. As the benzalkonium chloride (from the imbuement) diffuses away from the test disk, the concentration of benzalkonium chloride decreases with increasing distance from the test disk. Each test microbe has a different minimum inhibitory concentration (MIC) for benzalkonium chloride to effectively kill that microbe. Therefore, if the concentration of benzalkonium chloride is above the MIC, it is observed as a visible zone where the growth of that test microbe has been inhibited. For this reason, some test microbes show no additional zone around the disk (code 0 in Table V), some show a partial zone around the disk (code 1), some show a small inhibition zone (code 2), while other test microbes show a larger inhibition zone (code 3). Therefore, comparisons among example wet wipes can only be made while comparing the same test microbe.

Substance: benzalkonium chloride
- concentration remaining in solution shown to be sufficient for antibacterial efficacy: 0.029%
